Data from the supplement of paper PMC11208160.

assay: recombinant barcode read abundance after kanamycin selection (control-corrected) (log10(CPM+1)); higher = more efficient recombination; sequences stand for … in AGTGCAGAGAAAATCGGCCAGTTTTCTCTGCCTGCAGTCCGCATGCCGT…AGATTTATGCAGCGGACTGCCTTTCTCCCAAAGTGATAAACCGGACAGTATCATGGACCGGTTTTCCCGGTAATCCGTATTTGCAAGGTTGGTTTCACT; site = the 11-nt target
Method in brief: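 Targets and IS621 bridge RNA target-binding loops were paired in oligos, each with a promoter, a barcode and the J23119-driven first 104 bridge RNA bases. A vector carrying the remaining 73 bp and a T7-inducible recombinase received these by Gibson cloning, and the pool was co-electroporated into E. coli with a donor plasmid. Duplicate plates contained chloramphenicol/ampicillin LB agar (control) or chloramphenicol/ampicillin/kanamycin with 0.1 mM IPTG. Recombination efficiency comes from averaged, control-corrected counts per million of recombinant-junction barcodes, reported as log10(CPM+1).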
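Note: IS621 recombinase and bridge RNA in Escherichia coli cells.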

| Sequence | recombinant barcode read abundance (log10) |
| --- | --- |
| CGCTGGCCTTGGGTTCTAACCTGTTGCTT (site CGCTGTCCTAA) | 0.0658 |
| CGCTTGACTTGGGTTCTAACCTGTTGCCT (site CGCTAGACTAG) | 0.0413 |
| CGCTTGACTTGGGTTCTAACCTGTTGCCT (site CGCTCGACTAG) | 0.164 |
| CGCTTGACTTGGGTTCTAACCTGTTGCCT (site CGCTGGACTAG) | 0.131 |
| CGCTTGACTTGGGTTCTAACCTGTTGCCT (site CGCTTGACTAG) | 0.00854 |
| CGCTTTACTTGGGTTCTAACCTGTTGCCG (site CGCTTTACTCG) | 0.104 |
| CGCTTTACTTGGGTTCTAACCTGTTGCCG (site TAGACATCTAC) | 0.0706 |
| CGGAAATCTTGGGTTCTAACCTGTTGCCT (site CGAAAATCTAG) | 0.171 |
| CGGAAATCTTGGGTTCTAACCTGTTGCCT (site CGCAAATCTAG) | 0.0224 |
| CGGAAATCTTGGGTTCTAACCTGTTGCCT (site CGGAAATCTAG) | 0.127 |
| CGGAAATCTTGGGTTCTAACCTGTTGCCT (site CGTAAATCTAG) | 0.0515 |
| CGGAACACTTGGGTTCTAACCTGTTGCGG (site CGGAACACTCC) | 2.84 |
| CGGAACACTTGGGTTCTAACCTGTTGCGG (site CGGCACACTCC) | 0.755 |
| CGGAACACTTGGGTTCTAACCTGTTGCGG (site CGGGACACTCC) | 0.908 |
| CGGAACACTTGGGTTCTAACCTGTTGCGG (site CGGTACACTCC) | 1.08 |
| CGGAATGCTTGGGTTCTAACCTGTTGCCT (site CGAAATGCTAG) | 0.198 |
| CGGAATGCTTGGGTTCTAACCTGTTGCCT (site CGCAATGCTAG) | 0.0762 |
| CGGAATGCTTGGGTTCTAACCTGTTGCCT (site CGGAATGCTAG) | 1.38 |
| CGGAATGCTTGGGTTCTAACCTGTTGCCT (site CGTAATGCTAG) | 0.0616 |
| CGGACGACTTGGGTTCTAACCTGTTGCCT (site CGGACGACTAG) | 0.963 |
| CGGACGACTTGGGTTCTAACCTGTTGCCT (site CGGACGCCTAG) | 0.0677 |
| CGGACGACTTGGGTTCTAACCTGTTGCCT (site CGGACGGCTAG) | 0.0816 |

| Sequence | recombinant barcode read abundance (log10) |
| --- | --- |
| CGGACGACTTGGGTTCTAACCTGTTGCCT (site CGGACGTCTAG) | 0.111 |
| CGGAGCCCTTGGGTTCTAACCTGTTGCGG (site AGGAGCCCTTC) | 0.0728 |
| CGGAGCCCTTGGGTTCTAACCTGTTGCGG (site CGGAGCCCTCC) | 1.82 |
| CGGATCGCTTGGGTTCTAACCTGTTGCCT (site CGGATAGCTAG) | 0.079 |
| CGGATCGCTTGGGTTCTAACCTGTTGCCT (site CGGATCGCTAG) | 1.76 |
| CGGATCGCTTGGGTTCTAACCTGTTGCCT (site CGGATGGCTAG) | 0.153 |
| CGGATCGCTTGGGTTCTAACCTGTTGCCT (site CGGATTGCTAG) | 0.271 |
| CGGCATACTTGGGTTCTAACCTGTTGCCT (site CAGCATACTAG) | 0.0864 |
| CGGCATACTTGGGTTCTAACCTGTTGCCT (site CCGCATACTAG) | 0.0245 |
| CGGCATACTTGGGTTCTAACCTGTTGCCT (site CGGCATACTAG) | 0.66 |
| CGGCATACTTGGGTTCTAACCTGTTGCCT (site CTGCATACTAG) | 0 |
| CGGCCACCTTGGGTTCTAACCTGTTGCCT (site CGGCCACCTAG) | 2.02 |
| CGGCCACCTTGGGTTCTAACCTGTTGCCT (site TGGCCACCTAG) | 0.0718 |
| CGGCCTACTTGGGTTCTAACCTGTTGCTT (site CGGCCTACTAA) | 0.659 |
| CGGCCTACTTGGGTTCTAACCTGTTGCTT (site CGGCTTCCTAA) | 0.137 |
| CGGCGTCCTTGGGTTCTAACCTGTTGCCG (site CGGCGTCCTAG) | 0.498 |
| CGGCGTCCTTGGGTTCTAACCTGTTGCCG (site CGGCGTCCTCG) | 0.197 |
| CGGCTGTCTTGGGTTCTAACCTGTTGCCT (site CGGCTGTCTAG) | 1.28 |
| CGGCTGTCTTGGGTTCTAACCTGTTGCCT (site GTAGGAACTCA) | 0.0275 |
| CGGCTTCCTTGGGTTCTAACCTGTTGCTT (site CGGCCTACTAA) | 0.209 |
| CGGCTTCCTTGGGTTCTAACCTGTTGCTT (site CGGCTTCCTAA) | 0.104 |
| CGGGCCTCTTGGGTTCTAACCTGTTGCAC (site CGGGCCTCTGT) | 3.19 |

| Sequence | recombinant barcode read abundance (log10) |
| --- | --- |
| CGGGCCTCTTGGGTTCTAACCTGTTGCAC (site CGGTCCTCTGC) | 0.209 |
| CGGGCCTCTTGGGTTCTAACCTGTTGCTC (site CGGGCCTCTAA) | 0.752 |
| CGGGCCTCTTGGGTTCTAACCTGTTGCTC (site CGGGCCTCTCA) | 0.0404 |
| CGGGCCTCTTGGGTTCTAACCTGTTGCTC (site CGGGCCTCTGA) | 1.23 |
| CGGGCCTCTTGGGTTCTAACCTGTTGCTC (site CGGGCCTCTTA) | 0.0944 |
| CGGTACCCTTGGGTTCTAACCTGTTGCGG (site CAGCACCCTCC) | 0.64 |
| CGGTACCCTTGGGTTCTAACCTGTTGCGG (site CGGTACCCTCC) | 3.11 |
| CGGTCCGCTTGGGTTCTAACCTGTTGCCT (site AGATCCGCTAG) | 0.103 |
| CGGTCCGCTTGGGTTCTAACCTGTTGCCT (site CGGTCCGCTAG) | 1.52 |
| CGGTCGCCTTGGGTTCTAACCTGTTGCAT (site CGGTCGCCTAT) | 0.839 |
| CGGTCGCCTTGGGTTCTAACCTGTTGCAT (site CGGTTGCCTAC) | 0.153 |
| CGTAAATCTTGGGTTCTAACCTGTTGCCT (site CGAAAATCTAG) | 0.0185 |
| CGTAAATCTTGGGTTCTAACCTGTTGCCT (site CGCAAATCTAG) | 0.0232 |
| CGTAAATCTTGGGTTCTAACCTGTTGCCT (site CGGAAATCTAG) | 0.15 |
| CGTAAATCTTGGGTTCTAACCTGTTGCCT (site CGTAAATCTAG) | 0.146 |
| CGTACCTCTTGGGTTCTAACCTGTTGCTA (site CGTACCTCTAA) | 0.124 |
| CGTACCTCTTGGGTTCTAACCTGTTGCTA (site CGTACCTCTCA) | 0.123 |
| CGTACCTCTTGGGTTCTAACCTGTTGCTA (site CGTACCTCTGA) | 0.0598 |
| CGTACCTCTTGGGTTCTAACCTGTTGCTA (site CGTACCTCTTA) | 0.166 |
| CGTACCTCTTGGGTTCTAACCTGTTGCTT (site CGTACCTCTAA) | 0.579 |
| CGTACCTCTTGGGTTCTAACCTGTTGCTT (site CGTACCTCTCA) | 0.125 |
| CGTACCTCTTGGGTTCTAACCTGTTGCTT (site CGTACCTCTGA) | 0.406 |

| Sequence | recombinant barcode read abundance (log10) |
| --- | --- |
| CGTACCTCTTGGGTTCTAACCTGTTGCTT (site CGTACCTCTTA) | 0.127 |
| CGTACTACTTGGGTTCTAACCTGTTGCAC (site CGTACTACTGT) | 0.0785 |
| CGTACTACTTGGGTTCTAACCTGTTGCAC (site GGTACTACTAT) | 0.128 |
| CGTCAACCTTGGGTTCTAACCTGTTGCCT (site CGTCAACCTAG) | 0.0446 |
| CGTCAACCTTGGGTTCTAACCTGTTGCCT (site CGTCACCCTAG) | 0.117 |
| CGTCAACCTTGGGTTCTAACCTGTTGCCT (site CGTCAGCCTAG) | 0.177 |
| CGTCAACCTTGGGTTCTAACCTGTTGCCT (site CGTCATCCTAG) | 0.115 |
| CGTCACACTTGGGTTCTAACCTGTTGCCT (site CGACACACTAG) | 0.013 |
| CGTCACACTTGGGTTCTAACCTGTTGCCT (site CGCCACACTAG) | 0.107 |
| CGTCACACTTGGGTTCTAACCTGTTGCCT (site CGGCACACTAG) | 0.052 |
| CGTCACACTTGGGTTCTAACCTGTTGCCT (site CGTCACACTAG) | 0.013 |
| CGTCCGACTTGGGTTCTAACCTGTTGCAT (site CGTACGACTAT) | 0.0562 |
| CGTCCGACTTGGGTTCTAACCTGTTGCAT (site CGTCCGACTAT) | 0.113 |
| CGTCCGACTTGGGTTCTAACCTGTTGCAT (site CGTGCGACTAT) | 0.0838 |
| CGTCCGACTTGGGTTCTAACCTGTTGCAT (site CGTTCGACTAT) | 0 |
| CGTCGGGCTTGGGTTCTAACCTGTTGCAG (site CATCGGGCTCT) | 0.367 |
| CGTCGGGCTTGGGTTCTAACCTGTTGCAG (site CCTCGGGCTCT) | 0.107 |
| CGTCGGGCTTGGGTTCTAACCTGTTGCAG (site CGTCGGGCTCT) | 1.38 |
| CGTCGGGCTTGGGTTCTAACCTGTTGCAG (site CTTCGGGCTCT) | 0.258 |
| CGTCTACCTTGGGTTCTAACCTGTTGCCT (site AGTCTACCTAG) | 0.0669 |
